Measured values reported in article PMC12484522, “Neuroprotective effects of chemical constituents from Nicotiana tabacum L. in Parkinson’s disease” (Natural Products and Bioprospecting, 2025).
Entries after “also recorded” stand apart in the source; their conditions may differ. Read-outs that look alike come from different tables or passages of the source.

Assays:
MAO-B [1] = target: T1, MAO-B (Homo sapiens, UniProt P27338); assay: MAO-B inhibition assay (kynuramine, fluorescence); format: biochemical
T1 sequence (P27338 1-520): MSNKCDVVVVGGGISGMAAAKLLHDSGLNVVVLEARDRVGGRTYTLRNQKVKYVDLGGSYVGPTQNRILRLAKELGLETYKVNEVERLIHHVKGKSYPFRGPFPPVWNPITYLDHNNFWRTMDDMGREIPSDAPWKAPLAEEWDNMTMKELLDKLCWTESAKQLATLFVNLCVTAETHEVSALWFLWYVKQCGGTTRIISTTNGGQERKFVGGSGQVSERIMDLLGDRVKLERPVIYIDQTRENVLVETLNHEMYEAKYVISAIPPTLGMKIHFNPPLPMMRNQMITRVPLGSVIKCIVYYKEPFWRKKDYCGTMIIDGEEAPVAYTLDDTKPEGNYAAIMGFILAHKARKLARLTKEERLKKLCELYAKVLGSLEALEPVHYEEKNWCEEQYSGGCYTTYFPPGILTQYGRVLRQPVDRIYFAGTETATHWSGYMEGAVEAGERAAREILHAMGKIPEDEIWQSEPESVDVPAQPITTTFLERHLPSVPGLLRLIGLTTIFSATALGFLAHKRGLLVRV
Procedure: In preparing the microplates, 50 μL of MAO-B (2.5 U/mL) was combined with 100 μL of the test compounds at different concentrations. This mixture was incubated at 37 °C for 10 min. […] Next, 50 μL of kynuramine (0.2 mM) sourced from Macklin in Shanghai, China, was added to the mixture. The resulting mixture was incubated at 37 °C for an additional 30 min. The reaction was halted by adding 80 μL of 2 N NaOH. Ultimately, the enzyme activity was measured using a microplate reader, with the excitation and emission wavelengths set at 310 nm and 400 nm, respectively.

MAO-B [2] = target: T1, MAO-B; assay: Kinetic studies of MAO-B inhibition (Lineweaver–Burk plots); format: biochemical
Procedure: The kinetic study of MAO-B inhibition was the Lineweaver–Burk plot, which was performed using the Lineweaver–Burk curve method. […] Kinetic characterization of their MAO-B inhibition was recorded 20 min after initiation. Constants Kis and Ki were calculated using the Lineweaver–Burk plots.

[3] = ABTS+ radical scavenging assay; details: for IC50: read-out: ABTS+ IC50 (μM) ± SD
Procedure: Various concentrations of the compounds (60 μL each) were then combined with 150 μL of the diluted ABTS^+ solution. The reaction was maintained in the dark at 30 °C for 6 min. Afterwards, the absorbance was determined at 734 nm with a microplate reader. The calculation of ABTS radical scavenging activity followed the same method as for DPPH radical scavenging activity. IC50 values were determined using GraphPad Prism 7.0, and all tests were conducted in triplicate.

[4] = test system: dopamine levels and striatal DOPAC; set-up: method as in PMID 26796202; details: intraperitoneal, 80 mg/kg; cited from earlier work
MAO-B over MAO-A = details: cited from earlier work
human MAO-B = target: human MAO-B; set-up: method as in PMID 26796202; details: selective and reversible inhibition; cited from earlier work
murine MAO-B = target: murine MAO-B; set-up: method as in PMID 26796202; details: cited from earlier work
[5] = test system: 6-OHDA-induced PC12 cells; assay: Neuroprotective effect in 6-OHDA-induced PC12 cells (CCK-8 cell viability); format: cell-based
Procedure: Two-dimensional (2D) cell culture models were used for performing cell viability assays. Approximately 10,000 PC12 cells (Fenghui, Changsha, China) were seeded into each well of a 96-well plate. The cells underwent pre-treatment with the test compounds for 2 h at 37 °C. […] The plate was incubated at 37 °C for 1 h after adding 10 μL of CCK-8 solution (ProteinTech, Chicago, USA) to each well. Then, each well's optical density (OD) was measured at 450 nm using a multimode microplate reader (Waltham, MA, USA).

PC12 cell = assay: Cytotoxicity experiment on PC12 cells; format: cell-based; details: 0.5–100 μM
[6] = DPPH radical scavenging assay; details: for IC50: read-out: DPPH IC50 (μM) ± SD
Procedure: The antioxidative capacity of the obtained compounds was carried out through DPPH radical scavenging assays and ABTS assay (Macklin, Shanghai, China) with some modifications, and Vitamin C was used as the positive control. In the DPPH assay, 60 μL of the isolates at varying concentrations were mixed with 100 μL of 100 μM DPPH solution in ethanol in a 96-well microplate. The mixture was shaken for 10 s and then allowed to sit in darkness at 30 °C for 5 min. Subsequently, the absorbance was determined using a microplate reader at a wavelength of 517 nm. The radical-scavenging activity of the compounds was assessed using the formula RSA (%) = [(AB-AA)/AB] × 100%, where AA was the absorbance of the sample and AB was the absorbance of the blank sample. The IC50 value was calculated with GraphPad Prism 7.0, and all experiments were conducted in triplicate.

[7] = MAO-B, dose–response, read-out: IC50 (μM) ± SD
[8] = MAO-B, 50 μM, read-out: Inhibition rate ± SD (%) (50 μM)

For `CCC1=C(/C=C/C(O)CCCCCCCC(=O)OC)CCC1=O` (stereo not drawn) [10/11, phytoprostanes B1 type II], the IC50 (MAO-B [1]; [7]) was 37.7 ± 1.57 µM and the “Inhibition mechanism against MAO-B” value (MAO-B [2]) was “competitive MAO-B inhibitors; also recorded: competitive inhibition mechanism”.

With `CC(=O)/C=C/C/C(C)=C/CC/C(C)=C/CC/C(C)=C/CC/C(C)=C/CO` [Compound 1, Nicotiazanorpenoid A] the inhibition at 50 µM (MAO-B [1]; [8]) was 15.4 ± 8.16%.

`C=C(C)/C=C/[C@@H](CC/C(C)=C/CC/C(C)=C/C=O)C(C)C` [Compound 2, 2,6,11,13-tetradecatetraenal-3,7,13-trimethyl-10-(1-methylethyl)] showed an inhibition at 50 µM (MAO-B [1]; [8]) of 11 ± 3.99%.

For `COc1cc2ccc(=O)oc2cc1O` [Compound 3, scopoletin], the IC50 (MAO-B [1]) was 40.2 ± 1.21 µM, the “ABTS+ RSA ± SD (50 μM)” value [3] was 68.91 ± 1.75% and the IC50 [3] was 27.7 ± 1.2 µM. For the same compound, the Dopamine levels [4] was “significantly elevated”, the “Striatal metabolite 3,4-dihydroxyphenylacetic acid (DOPAC)” value [4] was “reducing” and the “Selectivity for MAO-B over MAO-A” value (MAO-B over MAO-A) was “approximately 3.5 fold”. The Ki (human MAO-B) was 20.7 µM, the Ki (murine MAO-B) was 22 µM and the “Inhibition mechanism against MAO-B” value (MAO-B [2]) was “non-competitive inhibitor”. It also gave a Ki (MAO-B [2]; MAO-B, read-out: Ki value (equilibrium constant for inhibitor-enzyme binding)) of 78.8 µM.

For `CC1=CC(=O)CC(C)(C)[C@H]1CC[C@@H](C)O` [Compound 4, blumenol C], the inhibition at 50 µM (MAO-B [1]; [8]) was 16.5 ± 7.04%.

`CC1=CC(=O)CC(C)(C)[C@H]1/C=C/[C@@H](C)O` [Compound 5, (6R,9S)-3-oxo-α-ionol] gave an inhibition at 50 µM (MAO-B [1]; [8]) of 24 ± 8.05%.

Compound `OCCc1ccccc1` [Compound 7, 2-phenylethanol] has an inhibition at 50 µM (MAO-B [1]; [8]) of 14.4 ± 4.04%.

For `CC(C)c1cc2c(cc1O)[C@@]1(C)CCCC(C)(C)[C@@H]1CC2` [Compound 8, ferruginol], the inhibition at 50 µM (MAO-B [1]; read-out: Inhibition rate ± SD (%) (50 μM), MAO-B, 50 μM) was 17.5 ± 1.5%.

`CC(C)c1cc2c(cc1O)[C@@]1(C)CCCC(C)(C)[C@@H]1C=C2` [Compound 9, 6,7-dehydroferruginol] gave an inhibition at 50 µM (MAO-B [1]; [8]) of 7.04 ± 4.08%.

In the case of `CC/C=C\C/C=C\C/C=C\CCCCCC(=O)OC` [Compound 14, Methyl (7Z,10Z,13Z)-7,10,13-hexadecatrienoate], the “Neuroprotective effect at various concentrations” value ([5]; 0.5–100 μM) is reported as “enhanced cell viability across all tested concentrations, except 50 μM”, the viability at 5 µM ([5]; Rattus norvegicus, PC-12, 5 μM (best concentration)) is reported as 93.9% and the viability at 100 µM ([5]; Rattus norvegicus, PC-12, 100 μM, model group 63.58%) is reported as 87.1%. For the same compound, the inhibition at 50 µM (MAO-B [1]; [8]) was over 30%, the IC50 (MAO-B [1]; [7]) was 201 ± 7.03 µM and the Cytotoxicity (PC12 cell) was “extremely low cytotoxicity”.

`CCCCC/C=C\C/C=C\CCCCCCCC(=O)O` [Compound 15, linolic acid] gave an inhibition at 50 µM (MAO-B [1]; [8]) of 18 ± 4.32%.

`COCc1ccc(C=O)[nH]1` [Compound 16, 5-(methoxymethyl)-1H-pyrrole-2-carboxaldehyde] gave an inhibition at 50 µM (MAO-B [1]; [8]) of 22.2 ± 5.24%.

With `COC(=O)c1ccc(O)cn1` [Compound 17, methyl 5-hydroxypicolinate] the inhibition at 50 µM (MAO-B [1]; [8]) was 17.1 ± 5.06%.

Work on `O=C(O)c1ccc(O)cc1` [Compound 18, paraben-acid] yielded an inhibition at 50 µM (MAO-B [1]; [8]) of 8.29 ± 3.9%.

With `COc1cc(C(CO)OC)ccc1O` (stereo not drawn) [Compound 19, 4-hydroxy-β,3-dimethoxybenzeneethanol] the inhibition at 50 µM (MAO-B [1]; [8]) was 3.71 ± 4.89%, the “ABTS+ RSA ± SD (50 μM)” value [3] was 59.17 ± 3.59% and the IC50 [3] was 84.06 ± 0.76 µM.

For `COc1cc(CCO)ccc1O` [Compound 20, homovanillic alcohol], the inhibition at 50 µM (MAO-B [1]; [8]) was 2.98 ± 2.8%, the “ABTS+ RSA ± SD (50 μM)” value [3] was 57.38 ± 1.01% and the IC50 [3] was 60.5 ± 1.18 µM.

With `COc1cc(C(=O)CCO)ccc1O` [Compound 21, β-hydroxypropiovanillone] the inhibition at 50 µM (MAO-B [1]; read-out: Inhibition rate ± SD (%) (50 μM)) was 11.2 ± 1.81%, the “ABTS+ RSA ± SD (50 μM)” value [3] was 36.36 ± 1.01% and the IC50 [3] was 348 ± 17.5 µM.

Work on `O=C1C=CCCN1` [Compound 22, 5,6-dihydropyridin-2(1H)-one] yielded an inhibition at 50 µM (MAO-B [1]; [8]) of 1.05 ± 3.46%.

In the case of `C#CCN[C@@H]1CCc2ccccc21` [Rasagiline, rasagiline, reference compound], the Cell viability ([5]; positive control, abstract: at equivalent concentrations) is reported as 88.36%.

With `O=C1O[C@H]([C@@H](O)CO)C(O)=C1O` [Vitamin C, ascorbic acid, reference compound] the “ABTS+ RSA ± SD (50 μM)” value [3] was 99.80 ± 0.09%, the IC50 [3] was 14.46 ± 0.03 µM and the “DPPH RSA ± SD (50 μM)” value [6] was 99.97 ± 0.05%. It also gave an IC50 [6] of 9.12 ± 0.25 µM.

With isoferulic acid [Compound 6] the “ABTS+ RSA ± SD (50 μM)” value [3] was 92.90 ± 0.45%, the IC50 [3] was 18.1 ± 2.49 µM and the “DPPH RSA ± SD (50 μM)” value [6] was 36.00 ± 1.01%. The IC50 [6] was 152 ± 1.75 µM.
